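Test compounds were applied to cells in 96-well plates for 48 hours at 5 doses. Abbreviation: GI50, concentration required for 50% inhibition of growth.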 Active and inactive are the calls of the source. Cut-off read from the data, not from the text of the source: active = GI50 up to about 1.1 µM and inactive = higher.
Experiments:
Test in all cases: NCI anticancer screen, dose series, 48 h
786-0 = system: 786-0
A498 = system: A498
A549 = system: A549
ACHN = system: ACHN
CAKI-1 = system: CAKI-1
COLO 205 = system: COLO 205
DLD-1 = system: DLD-1
DMS-114 = system: DMS-114
DMS-273 = system: DMS-273
EKVX = system: EKVX
HCT-116 = system: HCT-116
HCT-15 = system: HCT-15
HL-60 = system: HL-60
HOP-18 = system: HOP-18
HOP-62 = system: HOP-62
HOP-92 = system: HOP-92
HT-29 = system: HT-29
IGROV-1 = system: IGROV-1
K562 = system: K562
KM12 = system: KM12
LOX IMVI = system: LOX IMVI
LXFL 529 = system: LXFL 529
M14 = system: M14
M19-MEL = system: M19-MEL
MOLT-4 = system: MOLT-4
Malme-3M = system: Malme-3M
NCI-H23 = system: NCI-H23
NCI-H460 = system: NCI-H460
NCI-H522 = system: NCI-H522
OVCAR-3 = system: OVCAR-3
OVCAR-4 = system: OVCAR-4
OVCAR-5 = system: OVCAR-5
OVCAR-8 = system: OVCAR-8
RPMI-8226 = system: RPMI-8226
RXF 393 = system: RXF 393
RXF 631 = system: RXF 631
SF-268 = system: SF-268
SF-295 = system: SF-295
SF-539 = system: SF-539
SK-MEL-28 = system: SK-MEL-28
SK-MEL-2 = system: SK-MEL-2
SK-MEL-5 = system: SK-MEL-5
SK-OV-3 = system: SK-OV-3
SN12C = system: SN12C
SNB-19 = system: SNB-19
SNB-75 = system: SNB-75
SNB-78 = system: SNB-78
SW-620 = system: SW-620
U-251 = system: U-251
UACC-257 = system: UACC-257
UACC-62 = system: UACC-62
UO-31 = system: UO-31
XF498 = system: XF498
CCRF-CEM = system: CCRF-CEM
HCC 2998 = system: HCC 2998
NCI-H226 = system: NCI-H226
SR = system: SR
TK-10 = system: TK-10
KM-20L2 = system: KM-20L2

Measured: GI50

O=C1NC2C(O)CCCCC2C12CCCCC2 (centres undefined)
inactive: 786-0 > 100 µM | A498 > 100 µM | A549 > 100 µM | ACHN > 100 µM | CAKI-1 > 100 µM | COLO 205 > 100 µM | DLD-1 > 100 µM | DMS-114 > 100 µM | DMS-273 > 100 µM | EKVX > 100 µM | HCT-116 > 100 µM | HL-60 > 100 µM | HOP-18 > 100 µM | HOP-62 > 100 µM | HOP-92 > 100 µM | HT-29 > 100 µM | IGROV-1 > 100 µM | K562 > 100 µM | KM12 > 100 µM | LOX IMVI > 100 µM | LXFL 529 > 100 µM | M14 > 100 µM | M19-MEL > 100 µM | MOLT-4 > 100 µM | Malme-3M > 100 µM | NCI-H23 > 100 µM | NCI-H460 > 100 µM | NCI-H522 > 100 µM | OVCAR-3 > 100 µM | OVCAR-4 > 100 µM | OVCAR-5 > 100 µM | OVCAR-8 > 100 µM | RPMI-8226 > 100 µM | RXF 393 > 100 µM | RXF 631 > 100 µM | SF-268 > 100 µM | SF-295 > 100 µM | SF-539 > 100 µM | SK-MEL-28 > 100 µM | SK-MEL-2 > 100 µM | SK-MEL-5 > 100 µM | SK-OV-3 > 100 µM | SN12C > 100 µM | SNB-19 > 100 µM | SNB-75 > 100 µM | SNB-78 > 100 µM | SW-620 > 100 µM | U-251 > 100 µM | UACC-257 > 100 µM | UACC-62 > 100 µM | UO-31 > 100 µM | XF498 > 100 µM
> 100 µM: HCT-15

CCC1CN2CCc3cc(OC)c(OC)cc3C2CC1CC1c2cc(OC)c(OC)cc2CCN1C(=O)C1CCCN1 (centres undefined)
31.7 µM: HCT-15
inactive: 786-0 17.1 µM | A498 28.6 µM | A549 26.4 µM | ACHN 28.7 µM | CAKI-1 6.44 µM | CCRF-CEM 26.1 µM | COLO 205 13 µM | DLD-1 30.1 µM | DMS-273 35.3 µM | EKVX 36.6 µM | HCC 2998 23.9 µM | HCT-116 19.5 µM | HL-60 19.3 µM | HOP-18 33.7 µM | HOP-62 32.5 µM | HOP-92 28.7 µM | HT-29 27.4 µM | IGROV-1 28.4 µM | K562 20.5 µM | KM12 35.2 µM | LOX IMVI 24.9 µM | LXFL 529 24.5 µM | M14 14.5 µM | M19-MEL 19.2 µM | MOLT-4 32.4 µM | Malme-3M 21.4 µM | NCI-H226 31.3 µM | NCI-H23 32.5 µM | NCI-H460 25.9 µM | NCI-H522 16.3 µM | OVCAR-3 27.4 µM | OVCAR-4 25.5 µM | OVCAR-5 53 µM | OVCAR-8 38.8 µM | RPMI-8226 50.5 µM | RXF 393 33.5 µM | RXF 631 28.7 µM | SF-268 32.8 µM | SF-295 41 µM | SF-539 20.3 µM | SK-MEL-28 18.8 µM | SK-MEL-2 27.8 µM | SK-MEL-5 17.3 µM | SK-OV-3 29.4 µM | SN12C 37.5 µM | SNB-19 14.9 µM | SNB-75 26 µM | SNB-78 47.4 µM | SR 19.1 µM | SW-620 28.8 µM | TK-10 45.4 µM | U-251 23.9 µM | UACC-257 17.2 µM | UO-31 21.5 µM | XF498 18.8 µM

COC(=O)[C@@]12C=CC(=O)[C@H]3C[C@@H](C(C(C)C)C1)[C@]32OC (some centres undefined)
inactive: 786-0 > 100 µM | A498 > 100 µM | A549 > 100 µM | ACHN > 100 µM | CAKI-1 > 100 µM | CCRF-CEM > 100 µM | COLO 205 > 100 µM | DLD-1 > 100 µM | DMS-114 > 100 µM | DMS-273 > 100 µM | EKVX > 100 µM | HCC 2998 > 100 µM | HCT-116 > 100 µM | HL-60 > 100 µM | HOP-18 > 100 µM | HOP-62 > 100 µM | HOP-92 > 100 µM | HT-29 > 100 µM | IGROV-1 > 100 µM | K562 > 100 µM | KM-20L2 > 100 µM | KM12 > 100 µM | LXFL 529 > 100 µM | M14 > 100 µM | M19-MEL > 100 µM | MOLT-4 > 100 µM | Malme-3M > 100 µM | NCI-H23 > 100 µM | NCI-H460 > 100 µM | OVCAR-3 > 100 µM | OVCAR-4 > 100 µM | OVCAR-5 > 100 µM | OVCAR-8 > 100 µM | RPMI-8226 > 100 µM | RXF 393 > 100 µM | RXF 631 > 100 µM | SF-268 > 100 µM | SF-295 > 100 µM | SF-539 > 100 µM | SK-MEL-28 > 100 µM | SK-MEL-2 > 100 µM | SK-MEL-5 > 100 µM | SK-OV-3 > 100 µM | SN12C > 100 µM | SNB-19 > 100 µM | SNB-75 > 100 µM | SNB-78 > 100 µM | SW-620 > 100 µM | TK-10 > 100 µM | U-251 > 100 µM | UACC-257 > 100 µM | UACC-62 > 100 µM | XF498 > 100 µM
> 100 µM: HCT-15

C=C1CC2(CCS(=O)(=O)c3ccccc32)OC1=O (centres undefined)
11.9 µM: HCT-15
inactive: 786-0 4.32 µM | A498 17.3 µM | A549 17.9 µM | ACHN 11.5 µM | CAKI-1 1.48 µM | CCRF-CEM 2.24 µM | COLO 205 2.99 µM | DLD-1 12.5 µM | DMS-114 3.94 µM | DMS-273 16.5 µM | EKVX 18 µM | HCC 2998 21.9 µM | HL-60 2.96 µM | HOP-18 3.63 µM | HOP-62 18.3 µM | HOP-92 3.72 µM | HT-29 12.2 µM | IGROV-1 16.6 µM | K562 4.04 µM | KM-20L2 14.3 µM | KM12 16 µM | LOX IMVI 17.3 µM | LXFL 529 4.4 µM | M14 6.62 µM | M19-MEL 17.5 µM | MOLT-4 3.49 µM | Malme-3M 12.4 µM | NCI-H226 10.9 µM | NCI-H23 12 µM | NCI-H460 18.5 µM | NCI-H522 2.82 µM | OVCAR-3 7.52 µM | OVCAR-4 13.7 µM | OVCAR-5 14.3 µM | RPMI-8226 2.74 µM | RXF 631 20.7 µM | SF-268 17.2 µM | SF-295 21.1 µM | SF-539 5.6 µM | SK-MEL-28 13.3 µM | SK-MEL-2 10.7 µM | SK-MEL-5 12.4 µM | SK-OV-3 17.6 µM | SNB-19 10.2 µM | SNB-78 9.51 µM | SW-620 3.01 µM | TK-10 12.9 µM | U-251 13.2 µM | UACC-257 14.5 µM | UACC-62 15.9 µM | UO-31 13.2 µM | XF498 13.2 µM

COCCOc1cc(C)cc(/C=C(C)/C=C/C2=C(C)CCCC2(C)C)n1
inactive: 786-0 > 100 µM | A498 > 100 µM | A549 51.9 µM | ACHN 84.3 µM | CAKI-1 > 100 µM | COLO 205 54 µM | DLD-1 > 100 µM | DMS-114 28.1 µM | DMS-273 48.5 µM | EKVX 38.2 µM | HCT-116 30.7 µM | HOP-18 > 100 µM | HOP-62 > 100 µM | HOP-92 38.6 µM | HT-29 28.6 µM | IGROV-1 > 100 µM | KM12 70.6 µM | LOX IMVI 54.8 µM | LXFL 529 45.8 µM | M14 94 µM | M19-MEL 32.8 µM | MOLT-4 13.3 µM | Malme-3M 38.3 µM | NCI-H226 32.1 µM | NCI-H23 58.9 µM | NCI-H460 88.7 µM | NCI-H522 28.9 µM | OVCAR-3 > 100 µM | OVCAR-4 59.2 µM | OVCAR-5 > 100 µM | OVCAR-8 60.7 µM | RPMI-8226 14.8 µM | RXF 393 39.7 µM | RXF 631 59.8 µM | SF-268 > 100 µM | SF-295 > 100 µM | SF-539 > 100 µM | SK-MEL-28 > 100 µM | SK-MEL-2 49 µM | SK-MEL-5 17.3 µM | SK-OV-3 > 100 µM | SN12C > 100 µM | SNB-19 > 100 µM | SNB-75 > 100 µM | SNB-78 81.3 µM | SR 16.5 µM | SW-620 59.7 µM | TK-10 > 100 µM | U-251 62.4 µM | UACC-257 33.2 µM | UACC-62 > 100 µM | UO-31 > 100 µM | XF498 43.6 µM
